Source: patent US8802705B2, “Pharmaceutical containing PPAR delta agonist” (Senju Pharmaceutical Co., Ltd., priority 2007, dated 2014)

Tested on: monkey meibomian gland epithelial cells
Test: Effect on cell number increase in meibomian gland epithelial cells (Experimental Example 3, Cell Counting Kit-8)
Format: cell-based
Conditions: medium renewed every 48 hr (3 x 48 hr), relative to non-addition group = 100%, mean ± SD, N = 5 or 10
Description: An eyelid of monkey isolated and stored in D-PBS was transferred to a clean bench, and cell preparation was aseptically performed as follows.
The isolated eyelid was immersed in 80% ethanol for 30 sec, washed three times with D-PBS added with 1% penicillin-streptomycin (Invitrogen), and transferred to a minimum essential medium (MEM; Invitrogen). The adipose tissue and muscular tissue surrounding the meibomian glandular tissue of the eyelid were removed under a stereomicroscope. They were transferred to MEM containing 0.3 U/mL collagenase A (Roche Diagnostics) and 2.4 U/mL dispase II (Roche Diagnostics), and shaken at 37° C. for 4 hr and at 4° C. overnight. The enzyme-treated tissue was set under a stereomicroscope, and the eyelash and eyelid connective tissue were removed to isolate the meibomian glandular tissue. Trypsin-EDTA (4 mL, Invitrogen) was added to the isolated glandular tissue, and the mixture was incubated at 37° C. for 10 min. After incubation, MEM (5 mL) containing 10% FBS (Invitrogen) was added thereto to stop the enzyme reaction, and the tissue constituting cells were dispersed by repeated suction and discharge of the mixture 5 times using an injection syringe equipped with a 21 G injection needle. The cell dispersion was passed through 100 μm and 40 μm nylon filters (Cell Strainer; Falcon), and cell mass and the like contained therein which could not be treated with the enzyme were removed. The cell suspension passed through the filters was collected in a centrifuge tube (50 mL) and centrifuged at room temperature, 1,500 rpm for 5 min. To the cell layers containing the object cells obtained by the centrifugation was added 80 μL of D-PBS containing 0.5% bovine serum albumin (BSA; Sigma-Aldrich), and the cells were sufficiently suspended therein. Anti-Fibroblast Microbeads (Militenyi Biotec, 20 μL) was added thereto, and the mixture was left standing at room temperature for 30 min. After completion of the reaction with an antibody, 2 mL of D-PBS containing 0.5% BSA was added thereto, and the mixture was centrifuged again at room temperature, 1,500 rpm for 5 min. To the cell layers containing the object cells obtained by the centrifugation was added 1 mL of D-PBS containing 0.5% BSA, and the cells were sufficiently suspended therein. The suspension was added dropwise to LD column (Militenyi Biotec) equilibrated in advance with a column washing solution (D-PBS containing 2 mM EDTA (DOJINDO LABORATORIES) and 0.5% BSA). Then, 2 mL of the column washing solution was added dropwise to the LD column. […] The cells collected in the centrifuge tube were centrifuged at room temperature, 1,500 rpm for 5 min, and the supernatant was removed. The sediment was suspended in Defined Keratinocyte Serum Free Medium (5 mL), centrifuged at room temperature, 1,500 rpm for 5 min, and removed the supernatant. Again, the residue was suspended in DK-SFM (3 mL), centrifuged at room temperature and 1,500 rpm for 5 min, and the supernatant was removed. The cells were suspended in DK-SFM (2 mL), and seeded on a 6 well multi-well plate for cell culture, which had been treated with collagen. The seeded cells were cultured in Defined keratinocyte-Serum Free Medium (DK-SFM; Invitrogen, attached Supplement was added as instructed in the preparation protocol), cultured in an incubator (SANYO) set to 37° C., 5% CO2, 95% air, 100% humidity, and the culture medium was exchanged with a new one every 48 hr until the cells became subconfluent.
As a test substance, compound A, [4-[3-[2-(4-trifluoromethyl)phenyl-4-isopropyl-5-thiazolyl]propionyl]-2-methylphenoxy]acetic acid (hereinafter to be referred to as compound B) or [4-[3-[2-(2-hydroxy-4-chlorophenyl)-5-isopropyl-4-oxazolyl]propionyl]-2-methylphenoxy]acetic acid (hereinafter to be referred to as compound C) was used. […]

SMILES: Cc1cc2c(CCc3sc(-c4ccc(C(F)(F)F)cc4)nc3C(C)C)noc2cc1OCC(=O)O [compound A, [3-[2-[4-isopropyl-2-(4-trifluoromethyl)phenyl-5-thiazolyl]ethyl]-5-methyl-1,2-benzisoxazol-6-yl]oxyacetic acid]
- cell number increase ratio (10^−6 M): 189.8 ± 13.1%
- cell number increase ratio (10^−7 M): 177.1 ± 9.7%
- cell number increase ratio (10^−8 M): 175.3 ± 9.0%
